We go through nine molecules from BindingDB's records for patent US20240051936 (Monte Rosa Therapeutics, 2024).

The target in the assay is Protein cereblon (Homo sapiens, UniProt Q96SW2). As to the kind of experiment: Fluorescent Polarization Assay. As for the experimental part: Compound activity was monitored in a fluorescence polarization (FP) homogeneous assay using 1-[5-({2-[2-(2-{[2-(2,6-dioxopiperidin-3-yl)-1,3-dioxo-2,3-dihydro-1H-isoindol-4-yl]oxy}acetamido)ethoxy]ethyl}carbamoyl)pentyl]-3,3-dimethyl-2-[(1E,3E)-5-[(2E)-1,3,3-trimethyl-5-sulfo-2,3-dihydro-1H-indol-2-ylidene]penta-1,3-dien-1-yl]-3H-indol-1-ium-5-sulfonate as a fluorescent probe. Unless otherwise stated, all reagents were purchased from Sigma Aldrich. Enzymatic reactions were conducted in Perkin-Elmer Black 384 well ProxiPlate Plus (catalogue no. 6008269) in 10 sL total volume. Full length wild-type cereblon CRBN (80.0 nM, 10 sL) was incubated in assay buffer containing 20 mM HEPES (pH 8.0), […], 0.5 mM TCEP and 0.05% Tween 20 in the presence or absence of compound (300 nL). Inhibitors were stored as 10 mM DMSO stocks in an inert environment (low humidity, dark, low oxygen, room temperature) using the Storage Pod System. Compounds and DMSO were dispensed using the Echo E5XX (Labcyte Inc. USA) to give concentrations from 300 to 0.937 or 3000 to 9.3 nM in a 12 data point curve. […] Following incubation at room temperature for 30 min, the assay was initiated by dispensing the probe to a final concentration of 5 nM (2.5 nL of a 20 μM stock) using the Echo E5XX. FP was measured after a period of 12 hours using a Pherastar plate reader (BMG Labtech, Germany) exciting at 590 nm and measuring the amount of parallel and perpendicular light at 675 nm. The FP signal was subsequently normalized to the no-compound control (i.e., DMSO). Analysis and IC50 values were derived using Dotmatics (Dotmatics UK) software.
Chain of Protein cereblon (Q96SW2 whole entry): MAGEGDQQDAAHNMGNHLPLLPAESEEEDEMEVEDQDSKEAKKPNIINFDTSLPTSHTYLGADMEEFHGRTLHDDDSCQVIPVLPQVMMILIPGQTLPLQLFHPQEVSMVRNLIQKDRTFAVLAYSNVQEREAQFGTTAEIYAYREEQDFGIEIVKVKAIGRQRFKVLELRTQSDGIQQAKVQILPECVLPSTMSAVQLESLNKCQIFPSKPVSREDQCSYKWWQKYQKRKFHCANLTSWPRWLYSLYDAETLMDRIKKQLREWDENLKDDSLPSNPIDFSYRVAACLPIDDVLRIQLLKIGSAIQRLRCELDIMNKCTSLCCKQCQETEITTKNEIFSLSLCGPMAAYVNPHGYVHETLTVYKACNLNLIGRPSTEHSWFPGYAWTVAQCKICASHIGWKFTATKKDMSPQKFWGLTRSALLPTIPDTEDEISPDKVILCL
In general, IC50 refers to the midpoint of a concentration-inhibition curve. Low values mean greater potency, high ones weaker potency. Consider `CC(C)(C)c1ccc(NC(=O)OCc2cc(F)c3c(c2)C(=O)N(C2CCC(=O)NC2=O)C3)cc1` (centres undefined) [US20240051936, Compound 10], for which the IC50 is greater than 1900 nM.
The molecule `O=C1CCC(N2Cc3c(F)cc(COC(=O)Nc4ccc(F)c(OC(F)(F)F)c4)cc3C2=O)C(=O)N1` (centres undefined) [US20240051936, Compound 14] registered an IC50 greater than 1900 nM.
The molecule `O=C1CCC(N2Cc3c(F)cc(COC(=O)Nc4ccc(C5CCC5)cc4)cc3C2=O)C(=O)N1` (centres undefined) [US20240051936, Compound 22] returned a half-inhibitory concentration (IC50) greater than 1900 nM.
To `O=C1CCC(N2Cc3c(F)cc(COC(=O)Nc4ccc(-c5ccccc5F)c(F)c4)cc3C2=O)C(=O)N1` (centres undefined) [US20240051936, Compound 29] belongs greater than 1900 nM; to `O=C1CCC(N2Cc3c(F)cc(COC(=O)Nc4cc(F)c(-c5ccccc5)c(F)c4)cc3C2=O)C(=O)N1` (centres undefined) [US20240051936, Compound 30], greater than 1900 nM; to `O=C1CCC(N2Cc3c(F)cc(COC(=O)Nc4ccc(F)c(Cl)c4)cc3C2=O)C(=O)N1` (centres undefined) [US20240051936, Compound 32], greater than 1900 nM.
The same measure for `O=C1CCC(N2Cc3c(F)cc(COC(=O)Nc4cc(F)cc(Cl)c4)cc3C2=O)C(=O)N1` (centres undefined) [US20240051936, Compound 33]: greater than 1900 nM; for `O=C1CCC(N2Cc3c(F)cc(COC(=O)Nc4cc(F)c(F)c(Cl)c4)cc3C2=O)C(=O)N1` (centres undefined) [US20240051936, Compound 61]: greater than 1900 nM.
To `COc1c(COC(=O)Nc2ccc(C)c(Cl)c2)ccc2c1C(=O)N(C1CCC(=O)NC1=O)C2` (centres undefined) [US20240051936, Compound 70] belongs greater than 1900 nM.
